Test results taken from US9409901B2, “Compositions and methods for treating or preventing diseases or disorders associated with misregulated EIF4E” (Bantam Pharmaceutical, LLC, priority 2012, dated 2016).
Where two headings read alike, the source gives them in different places.

Tests used:
AU565 = assay: SBH cell AU565; format: cell-based; conditions: AU565 cells
[1] = Compound solubility in DMSO; format: physicochemical
[2] = system: AU565 (breast cancer ER−/PR−, her2−nue+); assay: Cell proliferation assay, AU565; format: cell-based
Experimental: Cells: AU565 (breast cancer ER^−/PR^−, her2^−nue^+) • 1. Cells were resuspended in media containing 10% FBS and 2× gentamicin. Resuspended cells were transferred to an assay plate (100 μL aliquots; 5,200 cells/well). • 2. test compound(s) were serially diluted in assay media. Aliquots of 100 μLof the test compound solution was added to the resuspended cells, creating a total volume of 200 μL. • 3. Plates were incubated at 37 C for 91 hours. • 4. 20 μL of Promega Substrate CellTiter 96 Aqueous One Solution Reagent was added to each well. • 5. Plates were incubated at 37 C and read at 490 nm.

eIF4E = eIF4E (Homo sapiens, UniProt P06730); assay: Binding to eIF4E demonstrated by NMR; conditions: FIG. 7
eIF4E/eIF4G interaction = eIF4E/eIF4G interaction (Homo sapiens, UniProt P06730); assay: Fluorescence polarization (FP) assay of eIF4E/eIF4G interaction; format: binding
Experimental: The effect of the bound compound on the activity of eIF4e was further addressed using a Fluorescence Polarization (FP) assay. The FP assay was used to monitor the eIF4E/eIF4G interaction. The eIF4E/eIF4G complex was exposed to Structure 10, and the dissociation of eIF4G from eIF4E was measured using the FP assay.
18 amino acid FITC-labeled 4G peptide (Moerke, N. et al., Cell, 128:257-67, 2007).
Compounds as 12.5 mM solutions in DMSO
A master mixture of 20 nM peptide, 400 μM recombinant […] in NMR buffer was made. 240 μL of this master mix was transferred to a separate tube and 3.2 μL of DMSO was added. 30 μL aliquots of this mixture was then added to each of six wells of 384-well black plate. These are the maximum polarization wells. The minimum polarization wells were determined using peptide only at a concentration of 20 nM. The experimental wells were created by adding 3.2 μL of each 12.5 mM solution of a test compound to the master mixture. The compound mixtures were serially diluted to create a six point dose response curve (with six different concentrations of each test compound).
The triplicate averages of the readings were determined. […] The activity of compound at each concentration was determined by comparing the FP signal in the presence of compound to the control (no compound) value. The percent inhibition is =100−((FP compound/FP control)×100).

HeLa Cells = HeLa Cells FQ IC50; format: cell-based
Experimental: Exposed tryptophan side chains are measured in a spectrometer. Tryptophan, when excited at 280 nm, emits light at 350 nm. The degree to which tryptophan emissions are quenched is a measure of binding of a test compound to eIF4E, as tryptophan side chains become “buried” upon compound binding.
HeLa cells were transfected with a bicistronic dual luciferase construct (2×EMCV Luc Plasmid-firefly and EMCV IRES dependent Renilla luciferase). One reporter construct was CAP-dependent, and the other was not. The cells were treated with DMSO in the presence or absence of various compounds described herein for 10 hours (compounds shown are in 50 μM serial dilutions). Cells were evaluated for Luc activity according to the Promega Dual Glo manufacturer instructions.

[3] = system: CRL-2813 human melanoma xenografts; assay: CRL-2813 human melanoma xenografts, protein expression (immunostaining); format: in vivo, mice
Experimental: • 1. CRL-2813 cancer cells were grown to obtain ≈5×10^6 cells for each tumor. • 2. Cells were harvested and washed in PBS. • 3. Harvested and washed cells were resuspended in 50% Matrigel™/medium at a density of ≈5×10^6 cells in 100 μL. • 4. 100 μL of the cell suspension was injected subcutaneously • 5. Tumors were grown to ≈150 mm^3 (approx. 2 weeks). • 1. Mice were randomly distributed to treatment and control groups and observed daily. • 2. A test compound or vehicle alone was injected twice daily with at least 10 hrs time interval between doses • Note: Vehicle: corn oil. Drug solution: 35 mg/mL of compound first dissolved in ethanol, mixed with corn oil followed by ethanol evaporation. Dosage: each dose=125 μL vehicle or drug suspension i.p. • 3. Tumor volume was measured weekly. • 4. At the conclusion of experiment, mice were sacrificed, and tumors were removed and weighed. • 5. Remove tumor and weigh • 6. The removed tumors were fixed in formalin solution or flash frozen and processed for histology/immunocytochemistry, or pull-down.
4EGI-1 inhibits expression of oncogenic proteins in melanoma tumors. CRL-2813 human melanoma xenografts were immunostained with antibodies specific for cyclin D1, cyclin E, c-myc, Bcl-2, VEGF or PCNA (FIG. 13). The bar graph is the quantification of immunostaining data (FIG. 14).

polysomes = assay: Polysome profile; format: cell-based; conditions: sucrose gradient, FIG. 11
Experimental: Cells, plated in 140 mm culture dishes; in mid log phase of growth (4-5 plates per treatment. Test compounds as 40 mM master solutions in DMSO Lysis buffer: 15 mM Tris pH 7.4, 15 mM MgCl2, 150 mM NaCl, 1% TritonX-100, 100 μg/mL cycloheximide, 1 mg/mL Heparin. Polysome buffer: 15 mM Tris pH7.4, 15 mM MgCl2, 150 mM NaCl, 100 μg/mL cycloheximide. • 1. Cells were incubated with the desired concentrations of each compound for 2 hours. • 2. Cells were incubated with 100 μg/mL cycloheximide in media for 5 min at 37 C, after which the media was removed from the late, and the plate was put on ice. • 3. Cells were washed twice with 5 mL PBS+100 μg/mL CHX. • 4. Cells were harvested, resuspended in 375 μl of LSB with 1 mM DTT and 100 U/mL RNAsin. • 5. 125 μL of lysis buffer was added, and the cells were subjected to 10 strokes in a homgenizer. • 6. The lysed cells were spun to remove cellular debris, and the supernatant was transferred to fresh tubes. • 7. 15 μL of 5M NaCl and 50 μL of 10 mg/mL Heparin was added. A 20 μL aliquot was taken and stored. The remainder of the supernatant mixture was taken to a volume of 1 mL and the OD260/280 was read. • 8. Aliquots of the supernatant mixture were then applied to a 15-50% sucrose gradient and spun for 105 minutes. The sucrose gradient was then fractionated and the OD254 was measured. […]

[4] = AU-565, 91 hours, read-out: ED50 (μM), anti-proliferative activity against AU-565
[5] = AU-565 cells, read-out: AU-565 EC50
[6] = fluorescence polarization, some cells give words

eIF4E/eIF4G interaction, sequence (P06730 whole entry, species assumed): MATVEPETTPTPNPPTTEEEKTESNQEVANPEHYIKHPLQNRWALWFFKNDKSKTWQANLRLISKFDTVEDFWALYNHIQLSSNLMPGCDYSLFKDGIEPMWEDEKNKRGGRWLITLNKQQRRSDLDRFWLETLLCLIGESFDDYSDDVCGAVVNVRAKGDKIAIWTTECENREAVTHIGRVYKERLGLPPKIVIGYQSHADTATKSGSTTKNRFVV
eIF4E, sequence (P06730 whole entry, species assumed): as above

With `CCOC(=O)CNC(=O)c1nn(-c2nc(-c3cccc(OC)c3)c(C(C)C)s2)c2ccc(C(F)(F)F)cc12` [Structure 47] the “SBH cell AU565 (μM)” value (AU565) was “none” and the “Compound Solubility DMSO” value [1] was “complete”.

For `CCOC(=O)CN(C)C(=O)c1nn(-c2nc(-c3cccc(OC)c3)c(C(C)C)s2)c2ccc(C(F)(F)F)cc12` [Structure 48], the EC50 (AU565) was 12 to 18 µM and the “Compound Solubility DMSO” value [1] was “half/less”.

For `COc1cccc(-c2nc(-n3cc(C(=O)N4CCNCC4)c4cc(C(F)(F)F)ccc43)sc2C(C)C)c1` [Structure 10], the EC50 ([2]; Homo sapiens, AU565, AU-565, 91 hours, read-out: ED50 (μM), anti-proliferative activity against AU-565) was 1.2 to 1.8 µM, the inhibition at 3.1 µM ([2]; Homo sapiens, AU565, AU-565, at 3.1 μM, read-out: % Growth Inhibition/μM) was 85% and the “Binding to eIF4E by NMR” value (eIF4E) was “demonstrated”.

In the case of `COc1cccc(-c2nc(-n3nc(C(=O)O)c4cc(C(F)(F)F)ccc43)sc2C(C)C)c1` [Structure 2], the EC50 [2, 4] is reported as 5.6 to 8.4 µM, the “% Growth Inhibition/μM” value ([2]; AU-565, at 40 μM) is reported as 79/40% and the EC50 [2, 5] is reported as 9.1 µM.

With `COc1cccc(-c2nc(-n3nc(CC(=O)NCC(=O)O)c4cc(Cl)ccc43)sc2C(C)C)c1` [Structure 15] the “FP EC50 (μM)” value (eIF4E/eIF4G interaction; [6]) was “some”, the EC50 (AU565) was 28 to 41 µM and the “Compound Solubility DMSO” value [1] was “complete”.

`COc1cccc(-c2nc(Cn3nc(C(=O)O)c4cc(C(F)(F)F)ccc43)sc2C(C)C)c1` [Structure 9] showed an EC50 (eIF4E/eIF4G interaction; [6]) of 24 to 36 µM.

With `COc1cccc(-c2nc(-n3nc(C(=O)c4nn[nH]n4)c4cc(C(F)(F)F)ccc43)sc2C(C)C)c1` [Structure 13] the EC50 (AU565) was 9 to 14 µM and the “Compound Solubility DMSO” value [1] was “complete”.

For `COc1cccc(-c2nc(-n3nc(CC(=O)O)c4cc(Cl)ccc43)sc2C(C)C)c1` [Structure 14], the EC50 (AU565) was 21 to 31 µM and the “Compound Solubility DMSO” value [1] was “complete”.

In the case of `O=C(O)/C(Cc1ccccc1[N+](=O)[O-])=N\Nc1nc(-c2ccc(Cl)c(Cl)c2)cs1` [Structure 4EGI-1Z, reference compound], the EC50 [2, 4] is reported as 4.8 to 7.1 µM, the “% Growth Inhibition/μM” value ([2]; AU-565, at 10 μM) is reported as 30/10% and the IC50 (HeLa Cells) is reported as 26.6 µM.

In the case of `COc1cccc(-c2nc(-n3nc(CC(=O)N(C)CC(=O)O)c4cc(Cl)ccc43)sc2C(C)C)c1` [Structure 16], the “FP EC50 (μM)” value (eIF4E/eIF4G interaction; [6]) is reported as “good”, the EC50 (AU565) is reported as 5.3 to 8 µM and the “Compound Solubility DMSO” value [1] is reported as “complete”.

With `O=C(O)/C(Cc1ccccc1[N+](=O)[O-])=N/Nc1nc(-c2ccc(Cl)c(Cl)c2)cs1` [Structure 4EGI-1, 4EGI-1] the “expression of oncogenic proteins in melanoma tumors” value ([3]; cyclin D1, cyclin E, c-myc, Bcl-2, VEGF or PCNA immunostaining) was “inhibits”, the “housekeeping proteins (e.g., actin and tubulin)” value ([3]; xenograft model, FIG. 14) was “unaffected” and the “translation of mRNA for growth-promoting and oncogenic proteins” value ([3]; xenograft model, FIG. 14) was “down-regulates”. For the same compound, the polysome density (polysomes) was “noticeable difference”.

For `COc1cccc(-c2nc(-n3nc(C(=O)O)c4cc(C#N)ccc43)sc2C(C)C)c1` [Structure 3], the “activity in fluorescence polarization assays” value (eIF4E/eIF4G interaction) was “showed activity” and the EC50 [2, 5] was 16 to 25 µM.

In the case of `CCc1sc(-n2nc(C(=O)O)c3cc(C(F)(F)F)ccc32)nc1-c1cccc(OC)c1` [Structure 1], the EC50 [2, 4] is reported as 8.5 to 12.8 µM and the “% Growth Inhibition/μM” value ([2]; AU-565, at 40 μM) is reported as 70/40%.

For `COC(=O)CNC(=O)c1nn(-c2nc(-c3cccc(OC)c3)c(C(C)C)s2)c2ccc(C(F)(F)F)cc12` [Structure 45], the “SBH cell AU565 (μM)” value (AU565) was “low” and the “Compound Solubility DMSO” value [1] was “half/less”.

With `CCc1sc(-n2nc(C(=O)O)c3cc(C(F)(F)F)ccc32)nc1-c1cccc(OC)c1` [Structure 17] the EC50 [2, 5] was 8.5 to 12.8 µM.

In the case of `COC(=O)CN(C)C(=O)c1nn(-c2nc(-c3cccc(OC)c3)c(C(C)C)s2)c2ccc(C(F)(F)F)cc12` [Structure 46], the EC50 (AU565) is reported as 18 to 28 µM and the “Compound Solubility DMSO” value [1] is reported as “little/no”.

In the case of `O=C(O)/C(Cc1ccccc1[N+](=O)[O-])=N/Nc1nc(-c2ccc(Cl)c(Cl)c2)cs1` [Structure 4EGI-1E, reference compound], the EC50 [2, 4] is reported as 21 to 32 µM, the “% Growth Inhibition/μM” value ([2]; AU-565, at 40 μM) is reported as 60/40% and the IC50 (HeLa Cells) is reported as 48.1 µM.

With `COc1ccc(C[C@H](N)C(=O)N[C@H]2[C@@H](O)[C@H](n3cnc4c(N(C)C)ncnc43)O[C@@H]2CO)cc1` [puromycin] the polysome density (polysomes) was “noticeable difference”.
